# From patent publication US12264158B2, “Protein kinase MKK4 inhibitors for promoting liver regeneration or reducing or preventing hepatocyte death” (HEPAREGENIX GMBH, priority 2018, dated 2025)
# Columns and labels:
# MEKK2 = biological target: T1, MEKK2 (Homo sapiens, UniProt Q9Y2U5); assay: Radiometric protein kinase assay, MEKK2; format: biochemical; details: substrate Casein, ATP 0.2 μM; read-out: MEKK2, potency derived from IC50-values
# T1 construct: purchased ProQinase #0583-0000-1
# T1 sequence (Q9Y2U5 1-619): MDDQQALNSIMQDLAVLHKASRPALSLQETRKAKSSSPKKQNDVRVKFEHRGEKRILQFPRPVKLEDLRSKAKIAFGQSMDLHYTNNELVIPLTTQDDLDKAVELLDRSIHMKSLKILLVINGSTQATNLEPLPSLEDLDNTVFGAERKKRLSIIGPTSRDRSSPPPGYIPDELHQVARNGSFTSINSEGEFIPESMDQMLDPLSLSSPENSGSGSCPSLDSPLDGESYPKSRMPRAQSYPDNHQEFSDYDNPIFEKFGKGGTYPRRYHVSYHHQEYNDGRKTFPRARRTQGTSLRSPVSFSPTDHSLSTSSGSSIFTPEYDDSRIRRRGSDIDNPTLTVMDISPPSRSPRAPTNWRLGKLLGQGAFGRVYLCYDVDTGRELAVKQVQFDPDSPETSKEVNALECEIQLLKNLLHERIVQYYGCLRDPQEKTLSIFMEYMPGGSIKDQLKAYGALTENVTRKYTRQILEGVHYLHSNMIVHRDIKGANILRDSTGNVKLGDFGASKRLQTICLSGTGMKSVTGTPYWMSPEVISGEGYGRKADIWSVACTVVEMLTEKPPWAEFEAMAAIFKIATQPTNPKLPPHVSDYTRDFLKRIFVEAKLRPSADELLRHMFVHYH
# Description: A radiometric protein kinase assay was used for measuring the kinase activity of the respective protein kinases. All kinase assays were performed in 96-well polypropylene plates. After the reactions were stopped, the assay mixtures were transferred to 96-well MSFC filter-plates (Millipore). The reaction mix was passed through the filter membrane by aspiration, the membrane was washed 3 times with 150 mM H3PO4, once with ethanol, dried and liquid scintillation cocktail was added. Radioactivity was determined by counting of the samples in a Microbeta multiwell scintillation counter (Wallac).
# MKK4 = biological target: T2, MKK4 (Homo sapiens, UniProt P45985); assay: KINOMEscan competition binding assay, MKK4 potency; details: concentration of 100 nM
# T2 construct: S84/D399; host or cells: HEK-293
# T2 sequence (P45985 84-399): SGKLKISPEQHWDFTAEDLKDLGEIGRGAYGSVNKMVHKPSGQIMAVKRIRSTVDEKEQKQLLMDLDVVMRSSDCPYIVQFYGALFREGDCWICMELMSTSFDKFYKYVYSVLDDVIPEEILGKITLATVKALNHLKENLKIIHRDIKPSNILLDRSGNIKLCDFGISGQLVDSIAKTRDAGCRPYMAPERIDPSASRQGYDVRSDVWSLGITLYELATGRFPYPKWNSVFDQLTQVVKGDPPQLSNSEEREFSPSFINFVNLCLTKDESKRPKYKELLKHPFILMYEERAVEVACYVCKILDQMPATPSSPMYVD
# Description: (§1) The assay was performed by combining three components: DNA-tagged kinase; immobilized ligand; and a test compound. The ability of the test compound to compete with the immobilized ligand was measured via quantitative PCR of the DNA tag. The technology is described in detail in Fabian, M. A. et al. A small molecule-kinase interaction map for clinical kinase inhibitors. Nat. […] M. W. et al. A quantitative analysis of kinase inhibitor selectivity, Nat.
# (§2) For investigation of the affinity to MKK4, MKK7 and JNK1, the kinases were produced in HEK-293 cells and subsequently tagged with DNA for qPCR detection. […] The liganded beads were blocked with excess biotin and washed with blocking buffer (SEABLOCK™ (Pierce), 1% BSA, 0.05% TWEEN®20, 1 mM DTT) to remove unbound ligand and to reduce nonspecific binding. […] All reactions were performed in polystyrene 96-well plates in a final volume of 0.135 mL. […] The kinase concentration in the eluates was measured by qPCR.
# (§3) The test compounds were provided as 10 mM stock solutions. The test solutions at indicated final concentrations were prepared at DiscoverX.
# JNK1 = biological target: T3, JNK1 (Homo sapiens, UniProt P45983); assay: KINOMEscan competition binding assay, selectivity against off-target JNK1; details: concentration of 100 nM
# T3 construct: M1/Q384; host or cells: HEK-293
# T3 sequence (P45983 1-384 isoform P45983-2): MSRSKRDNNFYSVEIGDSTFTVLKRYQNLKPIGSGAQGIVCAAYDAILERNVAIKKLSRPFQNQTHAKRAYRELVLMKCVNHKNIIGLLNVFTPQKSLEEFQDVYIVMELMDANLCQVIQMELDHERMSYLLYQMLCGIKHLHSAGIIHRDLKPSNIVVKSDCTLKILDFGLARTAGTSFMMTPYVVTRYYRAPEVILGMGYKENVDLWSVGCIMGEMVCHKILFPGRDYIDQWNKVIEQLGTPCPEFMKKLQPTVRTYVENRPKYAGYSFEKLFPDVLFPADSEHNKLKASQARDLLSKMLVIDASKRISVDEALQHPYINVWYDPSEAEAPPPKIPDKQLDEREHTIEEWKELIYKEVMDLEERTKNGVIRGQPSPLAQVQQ
# Description: as §1, §2, §3
# MKK7 = biological target: T4, MKK7 (Homo sapiens, UniProt O14733); assay: KINOMEscan competition binding assay, selectivity against off-target MKK7; details: concentration of 100 nM
# T4 construct: M1/R419; host or cells: HEK-293
# T4 sequence (O14733 1-419): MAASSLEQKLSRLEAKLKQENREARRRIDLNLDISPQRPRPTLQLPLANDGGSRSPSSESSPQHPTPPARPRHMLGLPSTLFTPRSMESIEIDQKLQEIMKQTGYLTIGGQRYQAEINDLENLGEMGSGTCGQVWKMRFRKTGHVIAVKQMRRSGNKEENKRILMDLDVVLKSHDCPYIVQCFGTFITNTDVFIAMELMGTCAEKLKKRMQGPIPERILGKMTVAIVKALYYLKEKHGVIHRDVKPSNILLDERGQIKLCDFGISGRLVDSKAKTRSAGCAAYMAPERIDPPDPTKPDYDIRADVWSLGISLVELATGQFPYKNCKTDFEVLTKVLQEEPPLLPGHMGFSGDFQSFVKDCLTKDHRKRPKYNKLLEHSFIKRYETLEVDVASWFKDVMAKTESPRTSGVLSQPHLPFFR
# Description: as §1, §2, §3
# BRaf = BRaf (Homo sapiens, UniProt P15056); assay: KINOMEscan competition binding assay, selectivity against off-target BRaf; details: concentration of 100 nM
# Chain of BRaf (P15056 whole entry): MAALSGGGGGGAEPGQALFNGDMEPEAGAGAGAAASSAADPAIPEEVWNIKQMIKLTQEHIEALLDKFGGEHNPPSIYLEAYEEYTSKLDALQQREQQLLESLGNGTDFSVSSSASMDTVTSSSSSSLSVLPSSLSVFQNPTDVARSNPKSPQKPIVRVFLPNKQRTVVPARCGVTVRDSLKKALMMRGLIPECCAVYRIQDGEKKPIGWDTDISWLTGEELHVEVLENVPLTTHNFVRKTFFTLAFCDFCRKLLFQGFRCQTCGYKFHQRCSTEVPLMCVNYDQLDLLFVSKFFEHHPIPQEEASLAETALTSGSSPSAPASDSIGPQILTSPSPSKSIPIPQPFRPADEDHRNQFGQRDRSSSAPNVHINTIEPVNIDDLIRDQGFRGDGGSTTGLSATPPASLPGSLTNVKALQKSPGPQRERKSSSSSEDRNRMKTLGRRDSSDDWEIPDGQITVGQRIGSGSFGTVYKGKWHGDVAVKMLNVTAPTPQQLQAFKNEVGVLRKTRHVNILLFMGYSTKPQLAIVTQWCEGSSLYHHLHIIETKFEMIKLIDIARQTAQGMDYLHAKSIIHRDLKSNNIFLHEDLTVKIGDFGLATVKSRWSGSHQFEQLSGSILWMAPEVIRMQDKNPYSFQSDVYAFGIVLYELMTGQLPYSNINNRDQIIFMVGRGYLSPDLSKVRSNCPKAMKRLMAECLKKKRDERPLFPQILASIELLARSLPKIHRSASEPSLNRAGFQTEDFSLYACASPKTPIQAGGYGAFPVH
# Description: as §1, §3
IC50 (MEKK2),"MKK4, residual percent of control binding (PoC) (MKK4)","Selectivity vs. JNK1, ratio PoC(JNK1)/PoC(MKK4) (JNK1)","Selectivity vs. MKK7, ratio PoC(MKK7)/PoC(MKK4) (MKK7)","Selectivity vs. BRaf, ratio PoC(BRaf)/PoC(MKK4) (BRaf)",SMILES
> 10 µM,,,,,"CCCS(=O)(=O)Nc1ccc(F)c(C(=O)c2n[nH]c3ncc(-c4ccc(F)cc4C)cc23)c1F [Example 4, N-(2,4-difluoro-3-(5-(4-fluoro-2-methylphenyl)-1H-pyrazo-lo[3,4-b]-pyri-dine-3-car-bonyl)-phenyl)-propane-1-sulfonamide]"
> 10 µM,,,,,"CCCS(=O)(=O)Nc1ccc(F)c(C(=O)c2n[nH]c3ncc(-c4ccc(OC)cc4Cl)cc23)c1F [Example 5, N-(3-(5-(2-chloro-4-methoxy-phenyl)-1H-pyrazolo[3,4-b]-pyridine-3-carbonyl)-2,4-difluorophenyl)propane-1-sulfonamide]"
,+ (10 ≤ PoC < 30),O (PoC(JNK1)/PoC(MKK4) < 3),+ (10 > PoC(MKK7)/PoC(MKK4) ≥ 3),O (PoC(BRaf)/PoC(MKK4) < 3),"CCCS(=O)(=O)Nc1ccc(F)c(C(=O)c2n[nH]c3ncc(-c4ccc(C(F)(F)F)cc4)cc23)c1F [Example 34, N-(2,4-difluoro-3-(5-(4-(trifluoromethyl)phenyl)-1H-pyrazolo[3,4-b]pyridine-3-carbonyl)-phenyl)propane-1-sulfonamide]"
,+ (10 ≤ PoC < 30),+ (10 > PoC(JNK1)/PoC(MKK4) ≥ 3),+ (10 > PoC(MKK7)/PoC(MKK4) ≥ 3),+ (10 > PoC(BRaf)/PoC(MKK4) ≥ 3),"CCCS(=O)(=O)Nc1ccc(F)c(C(=O)c2n[nH]c3ncc(-c4ccc(Cl)cc4Cl)cc23)c1F [Example 35, N-(3-(5-(2,4-dichlorophenyl)-1H-pyrazolo[3,4-b]pyridine-3-carbonyl)-2,4-difluoro-phenyl)propane-1-sulfonamide]"
,+ (10 ≤ PoC < 30),+ (10 > PoC(JNK1)/PoC(MKK4) ≥ 3),+ (10 > PoC(MKK7)/PoC(MKK4) ≥ 3),O (PoC(BRaf)/PoC(MKK4) < 3),"CCCS(=O)(=O)Nc1ccc(F)c(C(=O)c2n[nH]c3ncc(-c4ccc(Cl)c(C(F)(F)F)c4)cc23)c1F [Example 36, N-(3-(5-(4-chloro-3-(trifluoromethyl)phenyl)-1H-pyrazolo[3,4-13]-pyridine-3-carbonyl)-2,4-difluorophenyl)-propane-1-sulfonamide]"
> 10 µM,,,,,"Cc1cc(F)ccc1-c1cnc2[nH]nc(C(=O)c3cccc(NS(C)(=O)=O)c3F)c2c1 [Example 39, N-(2-fluoro-3-(5-(4-fluoro-2-methylphenyl)-1H-pyrazo-lo[3,4-b]pyridine-3-carbonyl)-phenyl)methanesulfonamide]"
> 10 µM,,,,,"CS(=O)(=O)Nc1cccc(C(=O)c2n[nH]c3ncc(-c4ccc5c(c4)OCCO5)cc23)c1F [Example 40, N-(3-(5-(2,3-dihydro-benzo-[b][1,4]dioxin-6-yl)-1H-pyrazolo[3,4-b]pyridine-3-carbonyl)-2-fluoro-phenyl)-methanesulfonamide]"
,+ (10 ≤ PoC < 30),+ (10 > PoC(JNK1)/PoC(MKK4) ≥ 3),+ (10 > PoC(MKK7)/PoC(MKK4) ≥ 3),+ (10 > PoC(BRaf)/PoC(MKK4) ≥ 3),"CCCCS(=O)(=O)Nc1cccc(C(=O)c2n[nH]c3ncc(-c4ccc5c(c4)OCCO5)cc23)c1F [Example 43, N-(3-(5-(2,3-dihydro-benzo-[b][1,4]dioxin-6-yl)-1H-pyrazolo[3,4-b]-pyridine-3-carbonyl)-2-fluorophenyl)-butane-1-sulfonamide]"
,O (PoC ≥ 30),O (PoC(JNK1)/PoC(MKK4) < 3),O (PoC(MKK7)/PoC(MKK4) < 3),O (PoC(BRaf)/PoC(MKK4) < 3),"CCCS(=O)(=O)Nc1ccc(F)c(NC(=O)c2n[nH]c3ncc(-c4ccc(Cl)cc4)cc23)c1F [Example 45, 5-(4-chlorophenyl)-N-(2,6-difluoro-3-(propylsulfonamido)phenyl)-1H-pyrazolo[3,4-b]pyridine-3-carboxamide]"
,O (PoC ≥ 30),O (PoC(JNK1)/PoC(MKK4) < 3),O (PoC(MKK7)/PoC(MKK4) < 3),O (PoC(BRaf)/PoC(MKK4) < 3),"CCCS(=O)(=O)Nc1ccc(F)c(Sc2n[nH]c3ncc(-c4ccc(Cl)cc4)cc23)c1F [Example 46, N-(3-((5-(4-chlorophenyl)-1H-pyrazolo[3,4-b]pyridin-3-yl)thio)-2,4-difluorophenyl)propane-1-sulfonamide]"
,O (PoC ≥ 30),O (PoC(JNK1)/PoC(MKK4) < 3),O (PoC(MKK7)/PoC(MKK4) < 3),O (PoC(BRaf)/PoC(MKK4) < 3),"CCCS(=O)(=O)Nc1ccc(F)c([S+]([O-])c2n[nH]c3ncc(-c4ccc(Cl)cc4)cc23)c1F (stereo not shown) [Example 47, N-(3-((5-(4-chlorophenyl)-1H-pyrazolo[3,4-b]pyridin-3-yl)sulfinyl)-2,4-difluorophenyl)propane-1-sulfonamide]"
,O (PoC ≥ 30),O (PoC(JNK1)/PoC(MKK4) < 3),O (PoC(MKK7)/PoC(MKK4) < 3),O (PoC(BRaf)/PoC(MKK4) < 3),"CCCS(=O)(=O)Nc1ccc(F)c(S(=O)(=O)c2n[nH]c3ncc(-c4ccc(Cl)cc4)cc23)c1F [Example 48, N-(3-((5-(4-chlorophenyl)-1H-pyrazolo[3,4-b]pyridin-3-yl)sulfonyl)-2,4-difluorophenyl)propane-1-sulfonamide]"
,O (PoC ≥ 30),O (PoC(JNK1)/PoC(MKK4) < 3),O (PoC(MKK7)/PoC(MKK4) < 3),O (PoC(BRaf)/PoC(MKK4) < 3),"CCCS(=O)(=O)Nc1ccc(F)c(Cc2n[nH]c3ncc(-c4ccc(Cl)cc4)cc23)c1F [Example 50, N-(3-((5-(4-chlorophenyl)-1H-pyrazolo[3,4-b]pyridin-3-yl)methyl)-2,4-difluorophenyl)propane-1-sulfonamide]"
